# Source: patent US9556179B2 (BRISTOL-MYERS SQUIBB COMPANY, priority 2012, dated 2017)
# Assays:
# CK1ε = CK1ε (Homo sapiens (Human), UniProt P49674); experiment: CK1ε kinase assay (Caliper LABCHIP electrophoretic separation of fluoresceinated peptide substrate and product); assay type: biochemical; conditions: 200 pM enzyme, 50 μM ATP, 22 hours at room temperature
# In short: (§1)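 Kinase reactions ran 22 h at room temperature, were stopped with EDTA, and phosphorylated product was separated electrophoretically from unphosphorylated fluoresceinated peptide. Compounds were tested at eleven concentrations from 10 mM DMSO stocks. IC50 by non-linear regression.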
# CK1δ = CK1δ (Homo sapiens (Human), UniProt P48730); experiment: CK1δ kinase assay (Caliper LABCHIP electrophoretic separation of fluoresceinated peptide substrate and product); assay type: biochemical; conditions: 200 pM enzyme, 50 μM ATP, 22 hours at room temperature
# In short: as §1
# CK1δ, sequence (P48730 whole entry): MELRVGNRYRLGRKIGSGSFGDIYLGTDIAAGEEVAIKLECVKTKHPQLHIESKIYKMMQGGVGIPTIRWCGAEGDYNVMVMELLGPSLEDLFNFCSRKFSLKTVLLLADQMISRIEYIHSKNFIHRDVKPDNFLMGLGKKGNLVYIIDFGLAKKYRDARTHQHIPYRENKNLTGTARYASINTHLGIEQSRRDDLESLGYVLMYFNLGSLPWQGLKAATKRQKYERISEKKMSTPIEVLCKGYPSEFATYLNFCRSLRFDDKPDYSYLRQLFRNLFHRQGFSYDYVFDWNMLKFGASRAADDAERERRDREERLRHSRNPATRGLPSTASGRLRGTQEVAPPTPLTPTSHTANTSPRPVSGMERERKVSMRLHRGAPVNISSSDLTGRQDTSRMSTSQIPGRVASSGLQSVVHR
# CK1ε, sequence (P49674 whole entry): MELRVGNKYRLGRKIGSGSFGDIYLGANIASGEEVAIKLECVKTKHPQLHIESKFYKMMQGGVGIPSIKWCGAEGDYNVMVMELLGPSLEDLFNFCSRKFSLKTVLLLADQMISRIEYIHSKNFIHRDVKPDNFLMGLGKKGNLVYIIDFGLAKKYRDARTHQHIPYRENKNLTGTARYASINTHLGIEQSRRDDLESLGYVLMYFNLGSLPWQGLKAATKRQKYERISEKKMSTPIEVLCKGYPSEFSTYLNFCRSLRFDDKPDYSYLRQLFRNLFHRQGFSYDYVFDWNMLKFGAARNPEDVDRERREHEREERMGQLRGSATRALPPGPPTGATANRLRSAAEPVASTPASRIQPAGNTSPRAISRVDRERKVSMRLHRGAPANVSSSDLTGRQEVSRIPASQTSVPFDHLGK
IC50 (CK1ε) [nM],IC50 (CK1δ) [nM],SMILES
1.63,0.311,"O=C(Nc1cn2nc(-c3c(-c4ccc(F)cc4)ncn3C3CCN(C(=O)OC4CCOCC4)CC3)ccc2n1)c1ccnc(F)c1 [Compound 81, tetrahydro-2H-pyran-4-yl 4-(5-(2-(2-fluoroisonicotinamido)imidazo[1,2-b]pyridazin-6-yl)-4-(4-fluorophenyl)-1H-imidazol-1-yl)piperidine-1-carboxylate]"
1.59,0.247,"O=C(Nc1cn2nc(-c3c(-c4ccc(F)cc4)ncn3C3CCN(C(=O)OCC4CC4(F)F)CC3)ccc2n1)c1ccnc(F)c1 (stereo not drawn) [Compound 82, (2,2-difluorocyclopropyl)methyl 4-(5-(2-(2-fluoroisonicotinamido)imidazo[1,2-b]pyridazin-6-yl)-4-(4-fluorophenyl)-1H-imidazol-1-yl)piperidine-1-carboxylate]"
0.967,0.179,"COC(=O)N1CCC(n2cnc(-c3ccc(F)cc3)c2-c2ccc3nc(NC(=O)c4ccnc(F)c4)cn3n2)CC1 [Compound 84, methyl 4-(5-(2-(2-fluoroisonicotinamido)imidazo[1,2-b]pyridazin-6-yl)-4-(4-fluorophenyl)-1H-imidazol-1-yl)piperidine-1-carboxylate]"
2.34,0.309,"O=C(Nc1cn2nc(-c3c(-c4ccc(F)cc4)ncn3C3CCN(C(=O)OCC(F)(F)F)CC3)ccc2n1)c1ccnc(F)c1 [Compound 85, 2,2,2-trifluoroethyl 4-(5-(2-(2-fluoroisonicotinamido)imidazo[1,2-b]pyridazin-6-yl)-4-(4-fluorophenyl)-1H-imidazol-1-yl)piperidine-1-carboxylate]"
0.851,0.286,"O=C(Nc1cn2nc(-c3c(-c4ccc(F)cc4)ncn3C3CCN(C(=O)OCc4ccon4)CC3)ccc2n1)c1ccnc(F)c1 [Compound 86, isoxazol-3-ylmethyl 4-(5-(2-(2-fluoroisonicotinamido)imidazo[1,2-b]pyridazin-6-yl)-4-(4-fluorophenyl)-1H-imidazol-1-yl)piperidine-1-carboxylate]"
1.05,0.402,"O=C(Nc1cn2nc(-c3c(-c4ccc(F)cc4)ncn3C3CCNCC3)ccc2n1)c1cc(F)nc(F)c1 [Compound 87, 2,6-difluoro-N-(6-(4-(4-fluorophenyl)-1-(piperidin-4-yl)-1H-imidazol-5-yl)imidazo[1,2-b]pyridazin-2-yl)isonicotinamide]"
2.56,0.38,"O=C(Nc1cn2nc(-c3c(-c4ccc(F)cc4)ncn3C3CCN(CCCF)CC3)ccc2n1)c1cc(F)nc(F)c1 [Compound 88, 2,6-difluoro-N-(6-(4-(4-fluorophenyl)-1-(1-(3-fluoropropyl)piperidin-4-yl)-1H-imidazol-5-yl)imidazo[1,2-b]pyridazin-2-yl)isonicotinamide]"
1.09,0.146,"NC(=O)CN1CCC(n2cnc(-c3ccc(F)cc3)c2-c2ccc3nc(NC(=O)c4cc(F)nc(F)c4)cn3n2)CC1 [Compound 89, N-(6-(1-(1-(2-amino-2-oxoethyl)piperidin-4-yl)-4-(4-fluorophenyl)-1H-imidazol-5-yl)imidazo[1,2-b]pyridazin-2-yl)-2,6-difluoroisonicotinamide]"
5.68,0.65,"O=C(Nc1cn2nc(-c3c(-c4ccc(F)cc4)ncn3C3CCN(C[C@@H](O)C(F)(F)F)CC3)ccc2n1)c1cc(F)nc(F)c1 [Compound 90, (R)-2,6-difluoro-N-(6-(4-(4-fluorophenyl)-1-(1-(3,3,3-trifluoro-2-hydroxypropyl)piperidin-4-yl)-1H-imidazol-5-yl)imidazo[1,2-b]pyridazin-2-yl)isonicotinamide]"
0.796,0.296,"O=C(Nc1cn2nc(-c3c(-c4ccc(F)cc4)ncn3C3CCN(C[C@H](O)C(F)(F)F)CC3)ccc2n1)c1cc(F)nc(F)c1 [Compound 91, (S)-2,6-difluoro-N-(6-(4-(4-fluorophenyl)-1-(1-(3,3,3-trifluoro-2-hydroxypropyl)piperidin-4-yl)-1H-imidazol-5-yl)imidazo[1,2-b]pyridazin-2-yl)isonicotinamide]"
7.88,1.45,"O=C(Nc1cn2nc(-c3c(-c4ccc(F)cc4)ncn3C3CCN(CCC(F)(F)F)CC3)ccc2n1)c1cc(F)nc(F)c1 [Compound 92, 2,6-difluoro-N-(6-(4-(4-fluorophenyl)-1-(1-(3,3,3-trifluoropropyl)piperidin-4-yl)-1H-imidazol-5-yl)imidazo[1,2-b]pyridazin-2-yl)isonicotinamide]"
2.47,0.393,"O=C(Nc1cn2nc(-c3c(-c4ccc(F)cc4)ncn3C3CCN(C(=O)c4ccon4)CC3)ccc2n1)c1cc(F)nc(F)c1 [Compound 93, 2,6-difluoro-N-(6-(4-(4-fluorophenyl)-1-(1-(isoxazole-3-carbonyl)piperidin-4-yl)-1H-imidazol-5-yl)imidazo[1,2-b]pyridazin-2-yl)isonicotinamide]"
0.095,0.034,"Cc1nc(-c2cccnc2)sc1C(=O)Nc1cn2nc(-c3c(-c4ccc(F)cc4)ncn3C3CCN(CCO)CC3)ccc2n1 [Compound 97, N-(6-(4-(4-fluorophenyl)-1-(1-(2-hydroxyethyl)piperidin-4-yl)-1H-imidazol-5-yl)imidazo [1,2-b]pyridazin-2-yl)-4-methyl-2-(pyridin-3-yl) thiazole-5-carboxamide]"
3.88,0.268,"Cc1nc(-c2cccnc2)sc1C(=O)Nc1cn2nc(-c3c(-c4ccc(F)cc4)ncn3C3CCN(CCC(F)(F)F)CC3)ccc2n1 [Compound 98, N-(6-(4-(4-fluorophenyl)-1-(1-(3,3,3-trifluoropropyl)piperidin-4-yl)-1H-imidazol-5-yl)imidazo [1,2-b]pyridazin-2-yl)-4-methyl-2-(pyridin-3-yl)thiazole-5-carboxamide]"
1.26,0.329,"Cc1nc(-c2cccnc2)sc1C(=O)Nc1cn2nc(-c3c(-c4ccc(F)cc4)ncn3C3CCN(C[C@H](O)C(F)(F)F)CC3)ccc2n1 [Compound 99, (S)—N-(6-(4-(4-fluorophenyl)-1-(1-(3,3,3-trifluoro-2-hydroxypropyl)piperidin-4-yl)-1H-imidazol-5-yl)imidazo[1,2-b]pyridazin-2-yl)-4-methyl-2-(pyridin-3-yl)thiazole-5-carboxamide]"
0.128,0.091,"Cc1nc(-c2cccnc2)sc1C(=O)Nc1cn2nc(-c3c(-c4ccc(F)cc4)ncn3C3CCN(CC(N)=O)CC3)ccc2n1 [Compound 100, N-(6-(1-(1-(2-amino-2-oxoethyl)piperidin-4-yl)-4-(4-fluorophenyl)-1H-imidazol-5-yl)imidazo[1,2-b]pyridazin-2-yl)-4-methyl-2-(pyridin-3-yl) thiazole-5-carboxamide]"
1.24,0.334,"Cc1nc(-c2cccnc2)sc1C(=O)Nc1cn2nc(-c3c(-c4ccc(F)cc4)ncn3C3CCN(C(=O)c4ccon4)CC3)ccc2n1 [Compound 101, N-(6-(4-(4-fluorophenyl)-1-(1-(isoxazole-3-carbonyl)piperidin-4-yl)-1H-imidazol-5-yl)imidazo[1,2-b]pyridazin-2-yl)-4-methyl-2-(pyridin-3-yl)thiazole-5-carboxamide]"
0.484,0.243,"Cc1nc(-c2cccnc2)sc1C(=O)Nc1cn2nc(-c3c(-c4ccc(F)cc4)ncn3C3CCN(C(=O)CC(F)(F)F)CC3)ccc2n1 [Compound 102, N-(6-(4-(4-fluorophenyl)-1-(1-(3,3,3-trifluoropropanoyl)piperidin-4-yl)-1H-imidazol-5-yl)imidazo [1,2-b]pyridazin-2-yl)-4-methyl-2-(pyridin-3-yl)thiazole-5-carboxamide]"
3.12,0.732,"O=C(Nc1cn2nc(-c3c(-c4ccc(F)cc4)ncn3C3CCNCC3)ccc2n1)c1ccnc(N2CCOCC2)c1 [Compound 106, N-(6-(4-(4-fluorophenyl)-1-(piperidin-4-yl)-1H-imidazol-5-yl)imidazo[1,2-b]pyridazin-2-yl)-2-morpholinoisonicotinamide]"
1.92,0.467,"O=C(Nc1cn2nc(-c3c(-c4ccc(F)cc4)ncn3C3CCN(CCC(F)(F)F)CC3)ccc2n1)c1ccnc(N2CCOCC2)c1 [Compound 107, N-(6-(4-(4-fluorophenyl)-1-(1-(3,3,3-trifluoropropyl)piperidin-4-yl)-1H-imidazol-5-yl)imidazo[1,2-b]pyridazin-2-yl)-2-morpholinoisonicotinamide]"
3.3,0.306,"O=C(Nc1cn2nc(-c3c(-c4ccc(F)cc4)ncn3C3CCN(C(=O)CC(F)(F)F)CC3)ccc2n1)c1ccnc(N2CCOCC2)c1 [Compound 108, N-(6-(4-(4-fluorophenyl)-1-(1-(3,3,3-trifluoropropanoyl)piperidin-4-yl)-1H-imidazol-5-yl)imidazo[1,2-b]pyridazin-2-yl)-2-morpholinoisonicotinamide]"
3.27,0.65,"CN1CCC(n2cnc(-c3ccc(F)cc3)c2-c2ccc3nc(NC(=O)c4ccnc5ccccc45)cn3n2)CC1 [Compound 110, N-(6-(4-(4-fluorophenyl)-1-(1-methylpiperidin-4-yl)-1H-imidazol-5-yl)imidazo[1,2-b]pyridazin-2-yl)quinoline-4-carboxamide]"
0.886,0.494,"NC(=O)CN1CCC(n2cnc(-c3ccc(F)cc3)c2-c2ccc3nc(NC(=O)c4ccnc5ccccc45)cn3n2)CC1 [Compound 112, N-(6-(1-(1-(2-amino-2-oxoethyl)piperidin-4-yl)-4-(4-fluorophenyl)-1H-imidazol-5-yl)imidazo[1,2-b]pyridazin-2-yl)quinoline-4-carboxamide]"
1.51,0.438,"N#CCCN1CCC(n2cnc(-c3ccc(F)cc3)c2-c2ccc3nc(NC(=O)c4ccnc5ccccc45)cn3n2)CC1 [Compound 113, N-(6-(1-(1-(2-cyanoethyl)piperidin-4-yl)-4-(4-fluorophenyl)-1H-imidazol-5-yl)imidazo[1,2-b]pyridazin-2-yl)quinoline-4-carboxamide]"
